Legend:
wheat powdery mildew [1] = experiment: Test of control effect on wheat powdery mildew; type: in vivo; set-up: Control Value: scale not given here; settings: wettable powder 125 mg/l, 100 liters/10 a, wheat seedlings (Nourin 64), examined 9th to 14th day after inoculation
Procedure: (Test of Control Effect on Wheat Powdery Mildew) Wettable powders were prepared from compounds of the present invention I-1 to I-27 and comparative compounds (a) to (d), (m-1) and (m-3). The obtained wettable powder was diluted and suspended with water to provide the predetermined concentration (125 mg/l), and was sprinkled onto seedlings of wheat (variety: “Nourin 64”) at the first to the second leaf period which were cultivated using square plastic pots (size: 6.4 cm×6.4 cm) in a rate of 100 liters/10 a (ares). After drying the sprinkled leaves with air, a suspension of wheat powdery mildew spores taken from infected leaves was inoculated by spraying onto the sprinkled leaves. They were supervised in a green house (temperature: 20 to 24° C., relative humidity: 20 to 70 RH). On the 9th to 14th day after the inoculation, the infection degree was examined according to the following scale and the control value of each compound was calculated by the following calculation equation 1. [table]

cucumber powdery mildew = experiment: Test of control effect on cucumber powdery mildew; type: in vivo; settings: wettable powder 100 mg/l, 100 liters/10 a, cucumber (Sagamihanpakufushinari), examined 9th to 14th day after inoculation
Procedure: (Test of Control Effect on Cucumber Powdery Mildew) The wettable powders formulated by using each of the compounds I-1 to 27 according to the present invention and the comparative compounds (a) to (d), (m-1) and (m-3) were each diluted and suspended with water to a predetermined concentration (100 mg/l), the suspension was sprinkled over the first to the second leaf period cucumbers (variety: “[…]”) cultivated by using a square plastic pot (size: 6.4 cm×6.4 cm) in a rate of 100 liters/10 a (ares). After the sprinkled leaves were air-dried, the spores were inoculated over the leaves by sprinkling the same with a brush from an infected leaf, a disease was contracted in a glass house (temperature: 20 to 24° C., relative humidity: 20 to 70 RH). On the 9th to 14th day after the inoculation, the infection degree was examined according to the following scale and the control value of each compound was calculated by the following calculation equation 2: (Examination Scale) [table]

Botrytis cinerea = experiment: Antifungal activity test (PDA plate, hypha extension inhibition); type: cell-based; settings: 1.6 ppm in PDA culture medium
Procedure: (Antifungal Activity Test against Various Pathogenic Fungi) For each of the compounds I-1 to 27 of the present invention and the comparative compounds (a) to (d), (m-1) and (m-3), 20 mg was weighed and dissolved in 2 ml of dimethylsulfoxide, and a double dilution row in 10 steps was prepared by further using dimethylsulfoxide. A 0.6 ml portion of these solutions was each added to 60 ml of a PDA culture medium (potato-dextrose-agar culture medium) at about 60° C., they were well mixed in a 100 ml Erlenmeyer flask, the solution was poured into a schale and was solidified, the plate culture media containing the compounds according to the present invention with final concentrations of 100, 50.0, 25.0, 12.5, 6.3, 3.2, 1.6, 0.8, 0.4 and 0.2 mg/l were prepared. On the other hand, the specimen bacteria cultured on the plate culture media beforehand was punched by a 4 mm diameter cork borer, and was inoculated on the plate culture media containing the aforementioned chemicals. After the inoculation, the bacteria were cultured at the optimum growth temperature of each bacterium for 1 to 7 days (for this optimum growth temperature, LIST OF CULTURES 1996 Microorganisms 10th edition published by Fermentation Research Institute (Foundation) can be referred to.), and the growth of the bacteria was measured by the diameter of a colony. […] R=100(dc−dt)/dc (Equation 3) [wherein each symbol is shown as follows: R=Hypha extension inhibition rate (%), dc=Diameter of colony on no-treated plate, dt=Diameter of colony on chemical-treated plate.] The results obtained above was evaluated in 5 steps in accordance with the following examination scale. <Growth Inhibition> 5: Hypha extension inhibition rate of 90% or more 4: Hypha extension inhibition rate of from 70% to less than 90% 3: […] 2: […] In addition, the abbreviations in Table 10 are as follows: B.c: Botrytis cinerea

wheat powdery mildew [2] = experiment: Permeable mobility fungicidal effect test in leaf section of wheat powdery mildew; type: in vivo; settings: length of non-contracted area relative to compound (m-2); 200 mg/l, 0.5 μl applied to wheat leaf (Abukumawase)
Procedure: (Permeable Mobility Fungicidal Effect Test in Leaf Section of Wheat Powdery Mildew) In the test example 4, permeable mobility fungicidal effect test was performed on the leaf section of wheat powdery mildew with regard to the compounds I-1 to 27 according to the present invention and the comparative compounds (a) to (d), and (m-1) to (m-3) with the method described later. <Test Method> The compound in the form of a wettable powder obtained by Formulation 2 or the like was diluted and suspended with water to a predetermined concentration (200 mg/l), and 0.5 μl of the suspension was applied to a 2 to 3 cm leaf portion from the root of the three leaves of the 4th to 4.5th leaf period wheat (variety: Abukumawase) cultured by using a square plastic pot (size: 6.4 cm×6.4 cm). After these wheat leaves were subject to still standing in a glass house (temperature: 20 to 24° C., relative humidity: 20 to 70 RH) for one day, the spores of wheat powdery mildew were inoculated over the leaves by sprinkling the same with a brush from an infected leaf, a disease was contracted in the same glass house. The length of a non-contracted area generated from the applied portion to the direction of the leaf top was measured, and a relative mobility to the compound (m-2) was calculated with the following calculation […] by using the comparative compound (m-2) as a standard compound. Relative mobility=(Length of non-contracted area in each chemical section (cm)/Length of non-contracted area of compound (m-2) (cm)) (Equation 4)

Structure (SMILES)	pest or weed control at 125 µg/mL (wheat powdery mildew [1]; Triticum aestivum)	pest or weed control at 100 µg/mL (cucumber powdery mildew; Cucumis sativus)	inhibition at 1.6 ppm (Botrytis cinerea; read-out: Growth Inhibition B.c (1.6))	Relative Mobility (wheat powdery mildew [2])	Control Value (wheat powdery mildew [1])	Control Value (cucumber powdery mildew)	Growth Inhibition B.c (1.6) (Botrytis cinerea)
COc1cccc(CC(C)CN(C)Cc2ccc(Cl)nc2)c1 (stereo not drawn) [(m-3), 6-chloro-N-[3-(3-methoxyphenyl)-2-methylpropyl]-N-methyl-3-pyridylmethylamine, reference compound]	0%	0%	< 20%				
CC(Cc1cc(C(F)(F)F)cc(C(F)(F)F)c1)CN(C)Cc1ccc(Cl)nc1 (stereo not drawn) [Compound I-1]				3	100	100	4 (Hypha extension inhibition rate of from 70% to less than 90%)
CC(Cc1ccc(C(F)(F)F)cc1C(F)(F)F)CN(C)Cc1ccc(Cl)nc1 (stereo not drawn) [Compound I-2]				3	100	100	4 (Hypha extension inhibition rate of from 70% to less than 90%)
CC(Cc1cc(C(F)(F)F)ccc1C(F)(F)F)CN(C)Cc1ccc(Cl)nc1 (stereo not drawn) [Compound I-3]				3	90	100	4 (Hypha extension inhibition rate of from 70% to less than 90%)
CC(Cc1cc(C(F)F)cc(C(F)(F)F)c1)CN(C)Cc1ccc(Cl)nc1 (stereo not drawn) [Compound I-4]				3	100	80	4 (Hypha extension inhibition rate of from 70% to less than 90%)
CC(Cc1cc(Cl)cc(C(F)(F)F)c1)CN(C)Cc1ccc(Cl)nc1 (stereo not drawn) [Compound I-5]				3	100	100	4 (Hypha extension inhibition rate of from 70% to less than 90%)
CC(Cc1cc(F)cc(C(F)(F)F)c1)CN(C)Cc1ccc(Cl)nc1 (stereo not drawn) [Compound I-6]				5	100	100	4 (Hypha extension inhibition rate of from 70% to less than 90%)
CC(Cc1cccc(C(F)(F)F)c1F)CN(C)Cc1ccc(Cl)nc1 (stereo not drawn) [Compound I-7]				5	100	90	4 (Hypha extension inhibition rate of from 70% to less than 90%)
CC(Cc1c(F)c(F)c(C(F)(F)F)c(F)c1F)CN(C)Cc1ccc(Cl)nc1 (stereo not drawn) [Compound I-11]				5	90	100	4 (Hypha extension inhibition rate of from 70% to less than 90%)
CC(Cc1ccc(OC(F)F)cc1)CN(C)Cc1ccc(Cl)nc1 (stereo not drawn) [Compound I-13]				9	100	100	4 (Hypha extension inhibition rate of from 70% to less than 90%)
CC(Cc1ccc(OC(F)(F)C(F)C(F)(F)F)cc1)CN(C)Cc1ccc(Cl)nc1 (stereo not drawn) [Compound I-14]				7	100	100	4 (Hypha extension inhibition rate of from 70% to less than 90%)
CC(Cc1ccc(Cl)c(OC(F)(F)F)c1)CN(C)Cc1ccc(Cl)nc1 (stereo not drawn) [Compound I-15]				9	100	100	4 (Hypha extension inhibition rate of from 70% to less than 90%)
CC(Cc1ccc(OC(F)(F)F)c(Cl)c1)CN(C)Cc1ccc(Cl)nc1 (stereo not drawn) [Compound I-18]				8	100	100	5 (Hypha extension inhibition rate of 90% or more)
CC(Cc1ccc(OC(F)(F)Br)c(Cl)c1)CN(C)Cc1ccc(Cl)nc1 (stereo not drawn) [Compound I-19]				8	100	100	4 (Hypha extension inhibition rate of from 70% to less than 90%)
CC(Cc1cc(Cl)c(F)c(Cl)c1)CN(C)Cc1ccc(Cl)nc1 (stereo not drawn) [Compound I-22]				3	100	100	4 (Hypha extension inhibition rate of from 70% to less than 90%)
CC(Cc1c(F)c(F)c(F)c(F)c1F)CN(C)Cc1ccc(Cl)nc1 (stereo not drawn) [Compound I-23]				4	100	70	4 (Hypha extension inhibition rate of from 70% to less than 90%)
CC(Cc1ccc2c(c1)OC(Cl)(Cl)O2)CN(C)Cc1ccc(Cl)nc1 (stereo not drawn) [Compound I-25]				3	100	100	4 (Hypha extension inhibition rate of from 70% to less than 90%)
CC(Cc1ccc2c(c1)OC(F)(F)C(F)(F)O2)CN(C)Cc1ccc(Cl)nc1 (stereo not drawn) [Compound I-26]				3	100	100	4 (Hypha extension inhibition rate of from 70% to less than 90%)
CC(Cc1ccc2c(c1)C(F)(F)OC(F)(F)O2)CN(C)Cc1ccc(Cl)nc1 (stereo not drawn) [Compound I-27]				3	100	100	4 (Hypha extension inhibition rate of from 70% to less than 90%)
